Results on seven compounds are retold here after ChEMBL document CHEMBL1131740, “N-substituted 4-(5-indolyl)benzoic acids. Synthesis and evaluation of steroid 5alpha-reductase type I and II inhibitory activity” (Bioorg Med Chem Lett, 1999).

The structures appear in SMILES notation. Active and inactive are the calls of the source. No cut-off for these calls is given here.

In test [1] the target is T1, 3-oxo-5-alpha-steroid 4-dehydrogenase 1 (Rattus norvegicus, UniProt P24008).
T1 sequence (P24008 whole entry): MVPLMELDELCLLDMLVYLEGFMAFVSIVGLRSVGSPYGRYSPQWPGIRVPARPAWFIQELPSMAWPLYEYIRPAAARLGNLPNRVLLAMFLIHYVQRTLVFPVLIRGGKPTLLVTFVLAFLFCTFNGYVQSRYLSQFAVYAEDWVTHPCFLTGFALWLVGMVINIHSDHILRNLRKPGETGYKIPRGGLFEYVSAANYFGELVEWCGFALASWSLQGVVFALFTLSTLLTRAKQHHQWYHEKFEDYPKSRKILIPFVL
Description: Inhibitory activity against rat Steroid 5-alpha-reductase type I using 18213 3H testosterone 210 nM as substrate.

Test [2] deals with T2, 3-oxo-5-alpha-steroid 4-dehydrogenase 2 (Homo sapiens, UniProt P31213).
T2 sequence (P31213 whole entry): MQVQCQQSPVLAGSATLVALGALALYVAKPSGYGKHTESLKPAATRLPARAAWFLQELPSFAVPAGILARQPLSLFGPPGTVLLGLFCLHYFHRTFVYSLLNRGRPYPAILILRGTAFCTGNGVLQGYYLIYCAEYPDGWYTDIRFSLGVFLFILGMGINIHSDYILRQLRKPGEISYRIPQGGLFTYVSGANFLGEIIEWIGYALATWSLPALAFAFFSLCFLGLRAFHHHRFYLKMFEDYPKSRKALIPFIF
Description: Inhibitory activity against human Steroid 5-alpha-reductase type 2 using 18213 3H testosterone 210 nM as substrate.

Test [3] addresses T3, 3-oxo-5-alpha-steroid 4-dehydrogenase 1 (Homo sapiens, UniProt P18405).
T3 sequence (P18405 whole entry): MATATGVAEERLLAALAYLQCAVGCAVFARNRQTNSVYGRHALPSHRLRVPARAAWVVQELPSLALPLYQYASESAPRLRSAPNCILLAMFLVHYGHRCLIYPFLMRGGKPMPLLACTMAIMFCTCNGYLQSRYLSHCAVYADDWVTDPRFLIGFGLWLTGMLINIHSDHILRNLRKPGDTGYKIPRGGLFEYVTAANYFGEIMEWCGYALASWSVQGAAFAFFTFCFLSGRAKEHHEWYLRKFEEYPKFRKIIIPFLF
Description: Inhibitory concentration against human Steroid 5-alpha-reductase type I in DU 145 cell culture using 3H androstenedione 5 nM as substrate. Format: cell-based.

For test [4], the target named is T4, 3-oxo-5-alpha-steroid 4-dehydrogenase 2 (Homo sapiens) (UniProt P31213).
T4 sequence (whole entry): T2 sequence (P31213 whole entry)
Description: Percentage inhibition against human Steroid 5-alpha-reductase type 2 at 10 uM concentration using 18213 3H testosterone 210 nM as substrate.

Test [5] concerns the target T5, 3-oxo-5-alpha-steroid 4-dehydrogenase 1 (Rattus norvegicus) (UniProt P24008).
T5 sequence (whole entry): T1 sequence (P24008 whole entry)
Description: Inhibition against rat Steroid 5-alpha-reductase type I at 10 uM concentration using 18213 3H testosterone 210 nM as substrate; No inhibition.

The target in test [6] is T6, 3-oxo-5-alpha-steroid 4-dehydrogenase 1 (Homo sapiens) (UniProt P18405).
T6 sequence (whole entry): T3 sequence (P18405 whole entry)
Put plainly: Inhibition against human 5-alpha-reductase type 1 Steroid 5-alpha-reductase type I culture at 10 uM concentration using 3H androstenedione 5 nM as substrate.

Test [7] concerns the target T1, 3-oxo-5-alpha-steroid 4-dehydrogenase 1. Description: Inhibition against rat Steroid 5-alpha-reductase type I at 10 uM concentration using 18213 3H testosterone 210 nM as substrate: No inhibition.
The target in test [8] is T6, 3-oxo-5-alpha-steroid 4-dehydrogenase 1 (Homo sapiens). Description: (§1) Inhibition against human Steroid 5-alpha-reductase type I in DU 145 cell culture at 10 uM concentration using 3H androstenedione 5 nM as substrate. The format is cell-based.
Test [9] deals with T4, 3-oxo-5-alpha-steroid 4-dehydrogenase 2 (Homo sapiens). Put plainly: Inhibition against human Steroid 5-alpha-reductase type 2 at 10 uM concentration using 18213 3H testosterone 210 nM as substrate.
The target of test [10] is T5, 3-oxo-5-alpha-steroid 4-dehydrogenase 1 (Rattus norvegicus). Put plainly: Inhibition against rat Steroid 5-alpha-reductase type I at 10 uM concentration using 18213 3H testosterone 210 nM as substrate.
The target in test [11] is T4, 3-oxo-5-alpha-steroid 4-dehydrogenase 2 (Homo sapiens). Put plainly: Inhibition against human 5-alpha-reductase type 2 at 10 uM concentration using 18213 3H testosterone 210 nM as substrate.
Test [12] concerns the target T6, 3-oxo-5-alpha-steroid 4-dehydrogenase 1 (Homo sapiens). The description is as §1.
For test [13], the target named is T2, 3-oxo-5-alpha-steroid 4-dehydrogenase 2. Put plainly: Inhibitory activity against human 5-alpha-reductase type 2 using 18213 3H testosterone 210 nM as substrate.

For orientation: IC50 means the midpoint of a concentration-inhibition curve. Regarding `CC(C)(C)NC(=O)[C@H]1CC[C@H]2[C@@H]3CC=C4C=C(C(=O)O)CC[C@]4(C)[C@H]3CC[C@]12C` [EPRISTERIDE], the IC50 in test [1] is 45 nM; in [2] it was 3 nM; in test [3] it was 1100 nM.

For orientation: inhibition means the drop in the measured response relative to a control, in per cent. For the compound `O=C(O)c1ccc(-c2ccc3c(ccn3C3CCCCC3)c2)cc1`, in test [4], the inhibition turned out to be 36%. In [5], the inhibition entry was “inactive”.

As for `O=C(O)c1ccc(-c2ccc3c(ccn3CC3CCCCC3)c2)cc1`, the inhibition in test [6] was found to be 81%; in test [4] it was 50%. Besides, the figures for the half-inhibitory concentration (IC50) entry in [7] and in test [3] were “Not Active” and 2100 nM, respectively.

With `O=C(O)c1ccc(-c2ccc3c(ccn3C(c3ccccc3)c3ccccc3)c2)cc1`, the inhibition in test [8] is 81%; in [9], 40%; in [10] it was 26%. Besides, the concentration for half-maximal inhibition (IC50) in [3] worked out at 2780 nM.

Regarding `CCCC(CCC)n1ccc2cc(-c3ccc(C(=O)O)cc3)ccc21`, the inhibition in test [8] is 75%; in test [9], 10%; in test [10], 43%. In test [3], this compound had an IC50 of 3200 nM.

Turning to `CCCCn1ccc2cc(-c3ccc(C(=O)O)cc3)ccc21`, the figures for the inhibition in [8], in test [9] and in [10] were 72%, 24% and 17%, respectively.

With `O=C(O)c1ccc(-c2ccc3c(ccn3Cc3ccccc3)c2)cc1`, the inhibition in test [11] worked out at 60%; in test [12], 67%; in test [10], 12%. This compound also came in with an IC50 in [13] of 6200 nM.
